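Method: 48-hour compound exposure of cells in 96-well plates, five concentrations, linear interpolation of endpoints. The concentration for full growth arrest is given as TGI.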
What was measured:
Assay in all cases: inhibition of tumour cell growth, NCI panel, 48 h
[1] = tested on: U251 CNS
[2] = tested on: OVCAR-4 ovarian
[3] = tested on: HS 578T breast
[4] = tested on: NCI-H226 lung
[5] = tested on: OVCAR-5 ovarian
[6] = tested on: HT29 colon
[7] = tested on: CAKI-1 renal
[8] = tested on: T-47D breast
[9] = tested on: MOLT-4 leukemia
[10] = tested on: HCC-2998 colon
[11] = tested on: 786-0 renal
[12] = tested on: TK-10 renal
[13] = tested on: MALME-3M melanoma
[14] = tested on: SF-539 CNS
[15] = tested on: NCI-H23 lung
[16] = tested on: LOX IMVI melanoma
[17] = tested on: COLO 205 colon
[18] = tested on: A498 renal
[19] = tested on: MDA-MB-231 breast

SMILES | TGI [1] [µM] | TGI [2] [µM] | TGI [3] [µM] | TGI [4] [µM] | TGI [5] [µM] | TGI [6] [µM] | TGI [7] [µM] | TGI [8] [µM] | TGI [9] [µM] | TGI [10] [µM] | TGI [11] [µM] | TGI [12] [µM] | TGI [13] [µM] | TGI [14] [µM] | TGI [15] [µM] | TGI [16] [µM] | TGI [17] [µM] | TGI [18] [µM] | TGI [19] [µM]
CC(C)(C)C(=O)Oc1ccc(/C=C/C(=O)c2ccc(OC(=O)C(C)(C)C)cc2)cc1 | > 100 | > 100 | 86.9 | > 100 | > 100 | > 100 | 96.7 | > 100 | 53.2 | > 100 | > 100 | > 100 | > 100 | > 100 | > 100 | > 100 | > 100 | > 100 | > 100
C[C@@H](C[C@H]1OC(C)(C)O[C@@H]1C(C)(C)O)[C@H]1CC=C2[C@]3(C)[C@H](O)C[C@H]4C(C)(C)[C@H](O)CC[C@]4(C)[C@H]3CC[C@]21C | 15 | 26.2 | 16.6 | 20.6 | 17.1 | 8.23 | 19.5 | 43.2 | 14.7 | 15.8 | 18.5 | 17.8 | 26.3 | 17.2 | 26.1 | 17.3 | 10.5 | 18.5 | 18.7
CC1(C)CO[P@@](=S)(c2ccccn2)O[C@@H]1c1ccccc1 | > 100 | > 100 | > 100 | > 100 | > 100 | > 100 | > 100 | > 100 | > 100 | > 100 | > 100 | > 100 | > 100 | – | > 100 | > 100 | > 100 | > 100 | > 100
N#CCCN(CCC#N)c1ccc(/C=C2\N=C(c3ccccc3)N(c3ccc(C(=O)O)cc3)C2=O)cc1 | > 100 | 66.8 | 58.5 | 95.5 | > 100 | > 100 | – | > 100 | – | – | > 100 | > 100 | – | 61.5 | – | 93.2 | > 100 | > 100 | > 100
O=c1[nH]nc(Cc2ccccc2)n1/N=C/c1ccco1 | > 100 | > 100 | > 100 | > 100 | > 100 | > 100 | > 100 | > 100 | > 100 | > 100 | > 100 | – | > 100 | > 100 | > 100 | > 100 | > 100 | > 100 | > 100
O=C1C[C@@]23CCC4(CC2CCC[C@H]3O1)OCCO4 (stereo partly drawn) | > 100 | > 100 | > 100 | > 100 | > 100 | > 100 | – | > 100 | > 100 | > 100 | > 100 | – | > 100 | > 100 | > 100 | > 100 | > 100 | > 100 | > 100
CC(=O)NC1(NC(C)=O)C2CC(C1Cc1ccccc1)C(C)(C)C2C (stereo not drawn) | > 100 | > 100 | > 100 | > 100 | > 100 | > 100 | > 100 | > 100 | > 100 | > 100 | > 100 | > 100 | > 100 | > 100 | > 100 | – | > 100 | > 100 | > 100
FC(F)(F)c1ccc2c(c1)nc1n2C(c2c(Cl)cccc2Cl)SC1 (stereo not drawn) | 38.3 | 43.4 | 59.3 | 58.2 | 32.3 | 31.9 | 35 | 47.4 | > 100 | 40.1 | 33.4 | 47 | 42.1 | 43 | 60.1 | > 100 | – | 32.7 | 35.7
O=Cc1ccc(OC[C@H]2COC(=O)N2)cc1 | > 100 | > 100 | > 100 | > 100 | > 100 | > 100 | > 100 | > 100 | > 100 | > 100 | > 100 | > 100 | > 100 | > 100 | > 100 | > 100 | > 100 | – | > 100
CCc1ccc2[nH]c(O)c(C3=Nc4ccccc4C3=O)c2c1 | 38.2 | 61.3 | > 100 | > 100 | > 100 | > 100 | > 100 | 77.5 | 64.2 | 53.2 | 19 | 37 | > 100 | – | > 100 | > 100 | > 100 | 18.2 | > 100
CC(=O)O[C@H]1CC[C@@]2(C)C(=CC[C@@H]3[C@@H]2CC[C@]2(C)c4c(n[nH]c4C)C[C@@H]32)C1 | 31.3 | 33.3 | 48 | 35.2 | 31.1 | 23.5 | 32.5 | 25 | 53.4 | 34.1 | 35.1 | 34.2 | 12.7 | – | 34.5 | > 100 | 35.4 | 41 | 38.4
Oc1ccc(/C=C/c2cccc(/C=C/c3ccc(O)c(O)c3)n2)cc1O | > 100 | > 100 | > 100 | – | 23.6 | 24.5 | 90.5 | 7.06 | 17.8 | 33.1 | 24.7 | 23.6 | – | 9.39 | – | 21.7 | 28.9 | 26.2 | 76.7
Cc1ccc(S(=O)C[C@](NC(=O)OCc2ccccc2)(Sc2ccccc2)C(F)F)cc1 (stereo partly drawn) | 35.5 | 41.4 | 94.3 | 32.4 | 63.9 | 31.1 | 50.4 | 40 | 22.2 | 35.9 | 29.2 | 42.6 | 47.6 | – | 36.4 | 19.4 | 35.9 | 29.7 | 52.4
Cc1ccc(S(=O)(=O)CNC(=O)C(O)(O)C(F)(F)F)cc1 | > 100 | > 100 | > 100 | – | > 100 | > 100 | > 100 | > 100 | > 100 | > 100 | > 100 | > 100 | > 100 | > 100 | > 100 | > 100 | > 100 | > 100 | > 100
Nc1nccc(NCC2(CO)CC(OCc3ccccc3)C2)n1 (stereo not drawn) | > 100 | > 100 | > 100 | > 100 | > 100 | > 100 | > 100 | 36.2 | > 100 | > 100 | > 100 | – | > 100 | > 100 | > 100 | > 100 | > 100 | > 100 | > 100
N#[N+]c1c([O-])c2ccccc2c2ccccc12 | > 100 | > 100 | > 100 | 89.3 | > 100 | > 100 | > 100 | > 100 | > 100 | > 100 | > 100 | > 100 | – | 91 | > 100 | 86 | > 100 | 46.9 | > 100
O=C1/C(=C\c2ccc(Br)cc2)CCCc2ccccc21 | 31.2 | 26.3 | 49 | 28.6 | > 100 | 30.4 | 68.7 | 50.6 | 58.5 | 30.1 | 27.8 | 35.4 | – | 43.1 | 36.4 | 29.9 | 31.8 | 45.6 | 42
COc1ccc2cc(CNCCCCCCCCNCc3ccc4cc(OC)ccc4c3)ccc2c1 | 6.66 | 9.55 | > 20.8 | > 100 | 10.1 | 8.46 | > 100 | 91 | 7.5 | 31.8 | > 100 | 5.2 | – | – | > 100 | 43.4 | 29.6 | 9.68 | > 100
O=c1[nH]c(SCc2cccc([N+](=O)[O-])c2)nc2nc[nH]c12 | > 100 | > 100 | > 100 | > 100 | > 100 | > 100 | > 100 | > 100 | > 100 | – | > 100 | > 100 | > 100 | – | > 100 | > 100 | > 100 | > 100 | > 100
CC(O)c1cc2c(s1)C(=O)c1c(C(C)O)csc1C2=O (stereo not drawn) | 4.32 | 0.524 | 0.804 | 0.959 | 1.35 | 2.7 | 1.01 | 0.667 | – | 1.07 | 2.08 | 1.79 | 0.115 | 0.449 | 0.24 | 1.53 | 2.58 | 0.462 | 0.482
